Experimental findings from patent US20080214646A1 (priority 2005, published 2008) are described below.

Each structure is given as a SMILES string. Values joined by “and” are separate entries in the source; they are usually repeats but may differ in a detail not shown here. Identical values can stand only once. Marks after values point to notes of the source that are not given here.

Series [1] deals with T1, ovine COX-1 (Ovis aries, UniProt P05979).
T1 construct: purchased Cayman Chemical 560101
T1 sequence (P05979 25-600): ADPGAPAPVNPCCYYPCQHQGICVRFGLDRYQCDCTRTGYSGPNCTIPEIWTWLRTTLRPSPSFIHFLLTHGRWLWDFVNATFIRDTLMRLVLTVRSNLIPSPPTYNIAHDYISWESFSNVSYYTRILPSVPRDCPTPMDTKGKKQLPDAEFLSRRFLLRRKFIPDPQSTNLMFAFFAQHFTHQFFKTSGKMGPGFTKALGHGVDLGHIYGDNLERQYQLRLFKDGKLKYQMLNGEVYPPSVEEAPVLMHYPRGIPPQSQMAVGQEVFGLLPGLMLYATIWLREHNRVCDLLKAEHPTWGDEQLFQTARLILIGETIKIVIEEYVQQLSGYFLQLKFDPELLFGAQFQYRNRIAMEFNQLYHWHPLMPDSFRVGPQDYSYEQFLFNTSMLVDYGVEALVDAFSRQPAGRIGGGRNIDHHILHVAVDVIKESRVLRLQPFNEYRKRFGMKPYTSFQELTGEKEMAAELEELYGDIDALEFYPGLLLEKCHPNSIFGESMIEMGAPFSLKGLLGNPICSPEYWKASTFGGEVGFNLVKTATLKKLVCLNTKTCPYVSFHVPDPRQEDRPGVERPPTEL
The series can be described thus: In vitro ovine COX-1 enzyme inhibition (EIA kit). Format: biochemical. Conditions: mean of two determinations.

Series [2] concerns pig liver esterase. Conditions: 1.5 h, pH 7.4.
Method: (§1) Nitric Oxide Release Assay: In vitro nitric oxide release, upon incubation with phosphate buffer, pig liver esterase, or guinea pig serum, was determined by quantification of nitrite produced by the reaction of nitric oxide with oxygen and water using the Griess reaction.
Series [3] can be described thus: Nitric oxide release in phosphate buffer (Griess reaction). The following applies: PBS pH 7.4, 37° C., 1.5 h; relative to theoretical maximum 2 mol NO/mol. Format: physicochemical. On the technique in general: Nitrite, measured by Griess reagent, commonly stands in for NO production.
Method: as §1
The target of series [4] is T2, ovine COX-2 (Ovis aries, UniProt P79208).
T2 construct: purchased Cayman Chemical 560101
T2 sequence (P79208 17-603): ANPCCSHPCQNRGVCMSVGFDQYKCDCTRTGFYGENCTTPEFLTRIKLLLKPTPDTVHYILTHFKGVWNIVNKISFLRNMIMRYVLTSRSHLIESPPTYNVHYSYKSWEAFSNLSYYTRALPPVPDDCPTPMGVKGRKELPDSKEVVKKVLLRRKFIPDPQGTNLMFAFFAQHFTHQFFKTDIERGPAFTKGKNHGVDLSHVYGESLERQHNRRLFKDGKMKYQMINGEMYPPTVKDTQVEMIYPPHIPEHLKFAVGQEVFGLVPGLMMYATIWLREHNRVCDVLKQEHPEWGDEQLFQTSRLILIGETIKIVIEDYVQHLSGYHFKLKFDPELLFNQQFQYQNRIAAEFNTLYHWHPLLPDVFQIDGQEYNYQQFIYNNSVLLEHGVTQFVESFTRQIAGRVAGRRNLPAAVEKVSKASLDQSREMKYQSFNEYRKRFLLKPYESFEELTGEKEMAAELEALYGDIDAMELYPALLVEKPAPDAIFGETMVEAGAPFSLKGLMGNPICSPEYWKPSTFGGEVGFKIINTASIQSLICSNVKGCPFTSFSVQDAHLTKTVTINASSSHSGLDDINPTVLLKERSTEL
The series can be described thus: In vitro ovine COX-2 enzyme inhibition (EIA kit). Conditions: for IC50: ovine COX-2, mean of two determinations. Format: biochemical.

Series [5] deals with carrageenan-induced rat paw edema. The experiment in a line: Carrageenan-induced rat paw edema anti-inflammatory assay. Conditions: for ED50: 3 h after oral administration, rat, read-out: AI activity ID50. Format: in vivo. (The carrageenan paw model is a standard test of acute inflammation.)
The subject of series [6] is gastric ulcers. The series can be described thus: Acute ulcerogenesis assay (gastric ulcer index). Format: in vivo, rats. Conditions: oral, 6 h, rat. The protocol: All drugs were suspended and administered in 1.7 mL of a 1% methylcellulose solution. Control rats received oral administration of vehicle (1.7 mL of 1.0% methylcellulose solution). Food, but not water, was removed 24 h before administration of test compounds. Six hours after oral administration of the drug, rats were euthanized in a CO2 chamber and their stomachs were removed, cut out along the greater curvature of the stomach, gently rinsed with water and placed on ice. The number and the length of ulcers were determined using a magnifier lens. […] The average overall length (in mm) of individual ulcers in each tissue was designated as the “ulcer index”. Each experimental group consisted of four rats.

[7] abbreviates: equivalent amount to 250 mg of ibuprofen/kg.
Where [8] appears, read: equivalent amount to 250 mg of aspirin/kg.

Usually IC50 stands for the midpoint of a concentration-inhibition curve. On to `COc1ccc2c(c1)c(CC(=O)OCON=[N+]([O-])N(C)C)c(C)n2C(=O)c1ccc(Cl)cc1` [Compound 16, O^2-[2-(1-(4-Chlorobenzoyl)-5-methoxy-2-methyl-1H-indol-3-yl)acetoxymethyl]-1-(dimethylamino)diazen-1-ium-1,2-diolate], for which the IC50 in series [1] and in series [4] was > 100 µM in each case. In addition, the “% of Nitric oxide released, PLE” value in series [2] came out at 16.9 ± 0.1%. In series [3], the “% of Nitric oxide released, PBS (pH 7.4)” value came to 14.3 ± 0.1%. In series [5], the ED50 was determined as 5.9 mg/kg.
Turning to `CN(C)[N+]([O-])=N[O-].[Na+]` [Compound 7, O^2-Sodium 1-(N,N-dimethylamino)diazen-1-ium-1,2-diolate, reference compound], the “% of Nitric oxide released, PBS (pH 7.4)” value in series [3] is 95.2 ± 0.1%.
For `CC(C)Cc1ccc(C(C)C(=O)OCON=[N+]([O-])N2CCCC2)cc1` (stereo not drawn) [Compound 13, O^2-[2-(4-(Isobutyl)phenyl)propanoyloxymethyl]-1-(pyrrolidin-1-yl)diazen-1-ium-1,2-diolate], the concentration for half-maximal inhibition (IC50) in series [1] and in series [4] was > 100 µM in each case. In series [2], the “% of Nitric oxide released, PLE” value is 16.3 ± 0.1%. The “% of Nitric oxide released, PBS (pH 7.4)” value in series [3] turned out to be 14.9 ± 0.1%. Besides, the Ulcer index in series [6] (setting [7]) is 0 mm and 0^e mm. Moreover, the ED50 in series [5] was 66.8 mg/kg.
Regarding `CC(=O)Oc1ccccc1C(=O)O` [Aspirin, Acetyl salicylic acid, reference compound], the “COX-2 S.I. (COX-1 IC50/COX-2 IC50)” value in series [4] (selectivity index) is given as 0.14. Further, the ED50 in series [5] came out at 129 mg/kg.
For the compound `CC(=O)Oc1ccccc1C(=O)OCON=[N+]([O-])N1CCCC1` [Compound 11, O^2(Acetylsalicyloyloxymethyl)-1-(pyrrolidin-1-yl)diazen-1-ium-1,2-diolate], the half-inhibitory concentration (IC50) in series [1] and in series [4] was > 100 µM in each case. For the same compound, the “% of Nitric oxide released, PLE” value in series [2] is 18.5 ± 0.1%. For the same compound, the “% of Nitric oxide released, PBS (pH 7.4)” value in series [3] stood at 14.8 ± 0.1%. Further, the Ulcer index in series [6] (setting [8]) was 0 mm and 0^d mm. The ED50 in series [5] came out at 182 mg/kg.
As to `COc1ccc2c(c1)c(CC(=O)O)c(C)n2C(=O)c1ccc(Cl)cc1` [Indomethacin, indomethacin, reference compound], in series [5], the ED50 was 4.2 mg/kg.
In the case of `CC(C)Cc1ccc(C(C)C(=O)OCON=[N+]([O-])N(C)C)cc1` (stereo not drawn) [Compound 14, O^2-[2-(4-(Isobutyl)phenyl)propanoyloxymethyl]-1-(N,N-dimethylamino)diazen-1-ium-1,2-diolate], the IC50 in series [1] and in series [4] was > 100 µM in each case. The “% of Nitric oxide released, PLE” value in series [2] turned out to be 17.3 ± 0.1%. In series [3], the “% of Nitric oxide released, PBS (pH 7.4)” value is listed as 16.1 ± 0.1%. Moreover, the Ulcer index in series [6] (setting [7]) is 0 mm and 0^e mm. For the same compound, the ED50 in series [5] came to 62.3 mg/kg.
For the compound `CC(=O)Oc1ccccc1C(=O)OCON=[N+]([O-])N(C)C` [Compound 12, O^2(Acetylsalicyloyloxymethyl)-1-(N,N-dimethylamino)diazen-1-ium-1,2-diolate], the half-inhibitory concentration (IC50) in series [1] and in series [4] was > 100 µM in each case. Also, in series [2], the “% of Nitric oxide released, PLE” value is given as 19.1 ± 0.1%. In addition, the “% of Nitric oxide released, PBS (pH 7.4)” value in series [3] came out at 15.4 ± 0.1%. Moreover, the Ulcer index in series [6] (setting [8]) is 0 mm and 0^d mm. Also, in series [5], the ED50 amounted to 151 mg/kg.
With `CC(C)Cc1ccc(C(C)C(=O)O)cc1` (racemic) [Ibuprofen, ibuprofen, reference compound], the ED50 in series [5] was 67.4 mg/kg.
Consider `[Na+].[O-]N=[N+]([O-])N1CCCC1` [O^2-sodium 1-(pyrrolidin-1-yl)diazen-1-ium-1,2-diolate, reference compound], for which the “% of Nitric oxide released, PBS (pH 7.4)” value in series [3] came to 94.0 ± 0.1%.
Consider `COc1ccc2c(c1)c(CC(=O)OCON=[N+]([O-])N1CCCC1)c(C)n2C(=O)c1ccc(Cl)cc1` [Compound 15, O^2-[2-(1-(4-Chlorobenzoyl)-5-methoxy-2-methyl-1H-indol-3-yl)acetoxymethyl]-1-(pyrrolidin-1-yl)diazen-1-ium-1,2-diolate], for which the IC50 in series [1] and in series [4] was > 100 µM each time. Besides, the “% of Nitric oxide released, PLE” value in series [2] is on record as 16.3 ± 0.1%. Moreover, in series [3], the “% of Nitric oxide released, PBS (pH 7.4)” value came out at 15.1 ± 0.1%. In addition, in series [6] (equivalent amount to 30 mg of indomethacin/kg), the Ulcer index is recorded as 0.7 ± 0.11^f mm. In addition, the ED50 in series [5] is 10.7 mg/kg. Besides, the “fold less potent relative to the parent drug (ID50)” value in series [5] (carrageenan-induced rat paw edema, oral) was “about 2.5 fold”.
